Consider 61 compounds from ChEMBL document CHEMBL5108050, “Discovery of a New Class of Uracil Derivatives as Potential Mixed Lineage Kinase Domain-like Protein (MLKL) Inhibitors” (J Med Chem, 2022).

Broadly, the EC50 is the concentration at which the effect is half-maximal. Broadly, the residual activity is the signal under treatment as a percentage of the control signal.

The subject of the first assay is HT-29. As to the kind of experiment: Anti-necroptic activity in human HT-29 cells assessed as inhibition of TSZ (TNFalpha, Smac mimetic and z-VAD-FMK) induced necroptosis incubated for 24 hrs by celltiter-glo luminescent cell viability assay. It counts as functional, cell-based. The following applies: HT-29, 24 h. A general note: In ATP-based viability assays light output follows the ATP content of the culture.
Consider `C#CCn1c(Cl)c(NC(=O)CCc2ccc(C)cc2)c(=O)n(C)c1=O`, for which the EC50 came out at 7240 nM. Regarding `CC(=O)Nc1ccc(C#CCn2c(Cl)c(NC(=O)CCc3ccc(C)cc3)c(=O)n(C)c2=O)cc1`, the EC50 came out at 717 nM.

As for `Cc1ccc(CCC(=O)Nc2c(Cl)n(CC#Cc3ccc4c(c3)CCC(=O)N4)c(=O)n(C)c2=O)cc1`, the concentration giving a half-maximal response (EC50) is 132 nM. `Cn1c(=O)c(NC(=O)Cc2ccccc2)c(Cl)n(CC#Cc2cccc(O)c2)c1=O`: the EC50 turned out to be 1490 nM. Regarding `C=CC(=O)Nc1cn(CC#Cc2cccc(O)c2)c(=O)n(C)c1=O`, the concentration giving a half-maximal response (EC50) was over 10000 nM.

Take `COc1cccn(Cc2cc(C#CCn3c(Cl)c(NC(=O)CCc4ccc(C)cc4)c(=O)n(C)c3=O)ccc2Cl)c1=O`: the 50% effective concentration (EC50) was 90 nM. Still for that read-out and setting: under `Cc1ccc(CCC(=O)Nc2c(Cl)n(CC#Cc3ccc(O)cc3)c(=O)n(CC3CCCC3)c2=O)cc1` stands over 10000 nM; under `Cc1ccc(CCC(=O)Nc2c(Cl)n(CC#Cc3cccc(O)c3)c(=O)n(C)c2=O)cc1`, 316 nM; under `Cn1c(=O)c(NC(=O)Cc2ccc(F)cc2)c(Cl)n(CC#Cc2cccc(O)c2)c1=O`, 4600 nM.

With `C=CS(=O)(=O)Nc1cn(CC#Cc2cccc(O)c2)c(=O)n(C)c1=O`, the EC50 amounted to 2480 nM. The same measure, in the same setting: under `Cc1ccc(CCC(=O)Nc2c(Cl)n(CC#Cc3ccc(NC(=O)c4ccccc4)cc3)c(=O)n(C)c2=O)cc1` stands 214 nM.

For `C=CS(=O)(=O)Nc1c(C)n(CC#Cc2cccc(O)c2)c(=O)n(C)c1=O`, the EC50 was over 10000 nM. Same read-out and setting: with `CCCCCCCC(=O)Nc1c(Cl)n(CC#Cc2cccc(O)c2)c(=O)n(C)c1=O` the figure was 2340 nM; with `Cn1c(=O)c(NC(=O)Cc2ccc(Cl)cc2)c(Cl)n(CC#Cc2cccc(O)c2)c1=O`, 3770 nM; with `COc1ccn(Cc2cccc(C#CCn3c(Cl)c(NC(=O)CCc4ccc(C)cc4)c(=O)n(C)c3=O)c2)c(=O)c1`, 93 nM. For `Cc1ccc(CCC(=O)Nc2c(Cl)n(CC#Cc3ccc(F)c(Cn4ccccc4=O)c3)c(=O)n(C)c2=O)cc1`, the 50% effective concentration (EC50) came out at 139 nM. For the compound `Cc1ccc(CCC(=O)Nc2c(Cl)n(CC#Cc3ccc(Cn4ccccc4=O)cc3)c(=O)n(C)c2=O)cc1`, the EC50 stood at 168 nM. In the case of `Cc1ccc(CCC(=O)Nc2c(Cl)n(CC#Cc3ccc(Cl)c(Cn4ccccc4=O)c3)c(=O)n(C)c2=O)cc1`, the EC50 stood at 110 nM.

Consider `Cn1c(=O)c(NC(=O)Cc2cccc(F)c2)c(Cl)n(CC#Cc2cccc(O)c2)c1=O`, for which the concentration for a half-maximal effect (EC50) was found to be 2320 nM. Consider `Cc1ccc(CCC(=O)Nc2c(Cl)n(CC#Cc3ccc4[nH]ccc4c3)c(=O)n(C)c2=O)cc1`, for which the half-maximal effective concentration (EC50) was found to be 332 nM. Same read-out and setting: with `Cc1ccc(CCC(=O)Nc2c(Cl)n(CC#Cc3cccc(Cn4cc(C)ccc4=O)c3)c(=O)n(C)c2=O)cc1` the figure was 158 nM; with `COCCOCC(=O)Nc1c(Cl)n(CC#Cc2cccc(O)c2)c(=O)n(C)c1=O`, 4270 nM; with `CCC(C)(C)C(=O)Nc1c(Cl)n(CC#Cc2cccc(O)c2)c(=O)n(C)c1=O`, over 10000 nM. `Cn1c(=O)c(NC(=O)CCc2cccc(F)c2)c(Cl)n(CC#Cc2cccc(O)c2)c1=O`: the EC50 turned out to be 6300 nM.

As for `Cc1ccc(CCC(=O)Nc2c(Cl)n(CC#Cc3ccc4cc[nH]c4c3)c(=O)n(C)c2=O)cc1`, the half-maximal effective concentration (EC50) amounted to 727 nM. With `CCc1ccc(CCC(=O)Nc2c(Cl)n(CC#Cc3cccc(O)c3)c(=O)n(C)c2=O)cc1`, the EC50 was 998 nM. On the same count and under the same terms, under `Cc1ccc(CCC(=O)Nc2c(Cl)n(CC#Cc3cccc(Cn4c(C)cccc4=O)c3)c(=O)n(C)c2=O)cc1` stands 122 nM.

Take `Cc1ccc(CCC(=O)Nc2c(Cl)n(CC#Cc3cccc(Cn4cccc(C)c4=O)c3)c(=O)n(C)c2=O)cc1`: the concentration for a half-maximal effect (EC50) is 134 nM. Take `Cc1ccc(CCC(=O)Nc2c(Cl)n(CC#Cc3cccc(NC(=O)c4ccccc4)c3)c(=O)n(C)c2=O)cc1`: the EC50 stood at 1000 nM.

For the compound `Cn1c(=O)c(NC(=O)CC(C)(C)C)c(Cl)n(CC#Cc2cccc(O)c2)c1=O`, the concentration giving a half-maximal response (EC50) was determined as 5280 nM. In the case of `Cc1ccc(CCC(=O)Nc2c(Cl)n(CC#Cc3cccc(N)c3)c(=O)n(C)c2=O)cc1`, the EC50 came to 1060 nM.

For the compound `Cn1c(=O)c(NC(=O)c2ccccc2)c(Cl)n(CC#Cc2cccc(O)c2)c1=O`, the concentration giving a half-maximal response (EC50) is over 10000 nM. Same read-out and setting: under `Cn1c(=O)c(NC(=O)CCc2ccc(F)cc2)c(Cl)n(CC#Cc2cccc(O)c2)c1=O` stands 455 nM; under `COc1cccn(Cc2cccc(C#CCn3c(Cl)c(NC(=O)CCc4ccc(C)cc4)c(=O)n(C)c3=O)c2)c1=O`, 82 nM.

In the case of `Cn1c(=O)c(NC(=O)CCc2ccccc2)c(Cl)n(CC#Cc2cccc(O)c2)c1=O`, the half-maximal effective concentration (EC50) turned out to be 1070 nM. Same read-out and setting: under `Cc1ccc(CCC(=O)Nc2c(Cl)n(CC#Cc3cccc(Cn4ccc(C)cc4=O)c3)c(=O)n(C)c2=O)cc1` stands 106 nM; under `CCn1c(=O)c(NC(=O)CCc2ccc(C)cc2)c(Cl)n(CC#Cc2ccc(O)cc2)c1=O`, 2220 nM; under `CCC(C)C(=O)Nc1c(Cl)n(CC#Cc2cccc(O)c2)c(=O)n(C)c1=O` (stereo not given), 1740 nM. Same read-out and setting: under `Cn1c(=O)c(NC(=O)CCCc2ccccc2)c(Cl)n(CC#Cc2cccc(O)c2)c1=O` stands over 10000 nM; under `Cn1c(=O)c(NC(=O)/C=C/c2ccccc2)c(Cl)n(CC#Cc2cccc(O)c2)c1=O`, over 10000 nM; under `COc1cccn(Cc2cc(C#CCn3c(Cl)c(NC(=O)CCc4ccc(C)cc4)c(=O)n(C)c3=O)ccc2F)c1=O`, 91 nM.

As to `C=CS(=O)(=O)Nc1c(Cl)n(CC#Cc2cccc(O)c2)c(=O)n(C)c1=O`, the concentration for a half-maximal effect (EC50) came to 5680 nM. On the same count and under the same terms, under `CC(=O)Nc1cccc(C#CCn2c(Cl)c(NC(=O)CCc3ccc(C)cc3)c(=O)n(C)c2=O)c1` stands 870 nM; under `Cn1c(=O)c(NC(=O)CCc2ccccc2F)c(Cl)n(CC#Cc2cccc(O)c2)c1=O`, 829 nM; under `Cn1c(=O)c(NC(=O)CCc2ccc(Cl)cc2)c(Cl)n(CC#Cc2cccc(O)c2)c1=O`, 540 nM.

With `Cn1c(=O)c(NC(=O)CCc2ccc(C#N)cc2)c(Cl)n(CC#Cc2cccc(O)c2)c1=O`, the half-maximal effective concentration (EC50) turned out to be 639 nM. Regarding `Cc1ccc(CCC(=O)Nc2c(Cl)n(CC#Cc3ccc4c(c3)CCC(=O)O4)c(=O)n(C)c2=O)cc1`, the EC50 was found to be 113 nM. On the same count and under the same terms, under `C=CC(=O)Nc1c(OC)n(CC#Cc2cccc(O)c2)c(=O)n(C)c1=O` stands over 10000 nM; under `C=CS(=O)(=O)Nc1c(OC)n(CC#Cc2cccc(O)c2)c(=O)n(C)c1=O`, over 10000 nM; under `C=CC(=O)Nc1c(C)n(CC#Cc2cccc(O)c2)c(=O)n(C)c1=O`, over 10000 nM. Consider `Cn1c(=O)c(NC(=O)Cc2ccccc2F)c(Cl)n(CC#Cc2cccc(O)c2)c1=O`, for which the EC50 was found to be 3350 nM. On to `COc1ccc(C#CCn2c(Cl)c(NC(=O)CCc3ccc(C)cc3)c(=O)n(C)c2=O)cc1Cn1ccccc1=O`, for which the EC50 worked out at 85 nM.

As for `Cc1ccc(CCC(=O)Nc2c(Cl)n(CC#Cc3ccccc3)c(=O)n(C)c2=O)cc1`, the 50% effective concentration (EC50) stood at 1990 nM. Same read-out and setting: under `Cc1ccc(CCC(=O)Nc2c(Cl)n(CC#Cc3ccc4c(c3)CCC(=O)N4C)c(=O)n(C)c2=O)cc1` stands 281 nM. `COc1ccc(C#CCn2c(Cl)c(NC(=O)CCc3ccc(C)cc3)c(=O)n(C)c2=O)cc1`: the EC50 was 3390 nM. Same read-out and setting: with `Cc1ccc(CCC(=O)Nc2c(Cl)n(CC#Cc3ccc(N)cc3)c(=O)n(C)c2=O)cc1` the figure was 1020 nM; with `COc1ccc(CC(=O)Nc2c(Cl)n(CC#Cc3cccc(O)c3)c(=O)n(C)c2=O)cc1`, 1400 nM; with `Cc1ccc(CCC(=O)Nc2c(Cl)n(CC#Cc3ccc(NCc4ccccc4)cc3)c(=O)n(C)c2=O)cc1`, 2020 nM. Still for that read-out and setting: under `Cc1ccc(CCC(=O)Nc2c(Cl)n(CC#Cc3cccc(Cn4ccccc4=O)c3)c(=O)n(C)c2=O)cc1` stands 136 nM; under `CCCn1c(=O)c(NC(=O)CCc2ccc(C)cc2)c(Cl)n(CC#Cc2ccc(O)cc2)c1=O`, 1020 nM; under `CCC(=O)Nc1c(Cl)n(CC#Cc2cccc(O)c2)c(=O)n(C)c1=O`, 3380 nM.

For another assay, the target named is Receptor-interacting serine/threonine-protein kinase 3 (Homo sapiens) (UniProt Q9Y572). As to the kind of experiment: Inhibition of full length RIP3 (unknown origin) assessed as substrate phosphorylation using MBP and ATP as substrate at 1 uM preincubated for 15 mins followed by substrate addition and measured after 90 mins by ADP-Glo luminescence assay; values are per cent of control. The note with it: time 105.0 min. In general terms: In ADP-Glo the light output rises with the ADP produced.
Chain of Receptor-interacting serine/threonine-protein kinase 3 (Homo sapiens) (Q9Y572 whole entry, looked up): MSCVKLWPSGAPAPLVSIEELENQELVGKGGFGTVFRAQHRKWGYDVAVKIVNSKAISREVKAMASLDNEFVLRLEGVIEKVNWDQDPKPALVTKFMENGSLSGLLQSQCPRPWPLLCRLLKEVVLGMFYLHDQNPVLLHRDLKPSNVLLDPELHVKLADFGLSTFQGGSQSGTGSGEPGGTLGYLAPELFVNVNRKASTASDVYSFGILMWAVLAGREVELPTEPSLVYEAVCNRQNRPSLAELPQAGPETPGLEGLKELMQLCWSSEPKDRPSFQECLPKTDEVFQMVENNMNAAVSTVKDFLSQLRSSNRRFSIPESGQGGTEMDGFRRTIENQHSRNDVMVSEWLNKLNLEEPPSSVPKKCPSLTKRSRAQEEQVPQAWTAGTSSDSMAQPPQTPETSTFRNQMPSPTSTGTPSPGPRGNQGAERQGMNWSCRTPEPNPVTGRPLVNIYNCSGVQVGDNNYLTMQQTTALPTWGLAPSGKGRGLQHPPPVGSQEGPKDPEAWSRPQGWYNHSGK
Regarding `Cc1ccc(CCC(=O)Nc2c(Cl)n(CC#Cc3ccc4c(c3)CCC(=O)N4)c(=O)n(C)c2=O)cc1`, the residual activity stood at 102%.

The target is the same in the next assay. The experiment in a line: Inhibition of full length RIP3 (unknown origin) assessed as substrate phosphorylation using MBP and ATP as substrate at 10 uM preincubated for 15 mins followed by substrate addition and measured after 90 mins by ADP-Glo luminescence assay; values are per cent of control. The following applies: time 105.0 min.
Consider `Cc1ccc(CCC(=O)Nc2c(Cl)n(CC#Cc3ccc4c(c3)CCC(=O)N4)c(=O)n(C)c2=O)cc1`, for which the residual activity stood at 90.5%.

The target of another assay is T1, Receptor-interacting serine/threonine-protein kinase 1 (Homo sapiens) (UniProt Q13546).
T1 sequence (whole entry): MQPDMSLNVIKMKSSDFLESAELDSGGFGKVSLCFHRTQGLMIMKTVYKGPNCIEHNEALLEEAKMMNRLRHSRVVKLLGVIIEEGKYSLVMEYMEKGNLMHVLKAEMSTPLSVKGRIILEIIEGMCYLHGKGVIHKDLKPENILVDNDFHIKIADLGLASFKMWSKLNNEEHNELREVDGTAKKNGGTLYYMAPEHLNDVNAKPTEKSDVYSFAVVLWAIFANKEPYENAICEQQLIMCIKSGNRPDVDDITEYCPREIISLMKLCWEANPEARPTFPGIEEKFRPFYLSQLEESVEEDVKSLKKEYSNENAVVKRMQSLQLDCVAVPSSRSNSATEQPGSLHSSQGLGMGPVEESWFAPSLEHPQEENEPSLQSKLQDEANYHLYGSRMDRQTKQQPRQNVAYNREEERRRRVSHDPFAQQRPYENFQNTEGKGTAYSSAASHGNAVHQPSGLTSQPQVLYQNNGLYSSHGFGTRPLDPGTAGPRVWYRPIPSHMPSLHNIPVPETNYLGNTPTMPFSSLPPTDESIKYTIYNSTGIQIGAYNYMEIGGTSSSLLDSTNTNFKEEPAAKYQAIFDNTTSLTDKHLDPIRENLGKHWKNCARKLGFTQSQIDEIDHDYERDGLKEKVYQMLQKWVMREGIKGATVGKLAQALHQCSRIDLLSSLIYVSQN
The experiment in a line: Inhibition of RIP1 (1 to 375 residues) (unknown origin) assessed as substrate phosphorylation using MBP and ATP as substrate at 1 uM preincubated for 15 mins followed by substrate addition and measured after 90 mins by ADP-Glo luminescence assay; values are per cent of control. The note with it: time 105.0 min.
Take `Cc1ccc(CCC(=O)Nc2c(Cl)n(CC#Cc3ccc4c(c3)CCC(=O)N4)c(=O)n(C)c2=O)cc1`: the residual activity was 109%.

The next assay addresses T1, Receptor-interacting serine/threonine-protein kinase 1 (Homo sapiens). As to the kind of experiment: Inhibition of RIP1 (1 to 375 residues) (unknown origin) assessed as substrate phosphorylation using MBP and ATP as substrate at 10 uM preincubated for 15 mins followed by substrate addition and measured after 90 mins by ADP-Glo luminescence assay; values are per cent of control. The note with it: time 105.0 min.
In the case of `Cc1ccc(CCC(=O)Nc2c(Cl)n(CC#Cc3ccc4c(c3)CCC(=O)N4)c(=O)n(C)c2=O)cc1`, the residual activity was determined as 94.5%.
